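The compound was tested at five concentrations on cells cultured in 96-well plates, with a 48-hour exposure period. Here, GI50 denotes the concentration required for 50% inhibition of growth.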 Active and inactive are the calls of the source. Cut-off read from the data, not from the text of the source: active = GI50 up to about 1.1 µM and inactive = higher.

Some test systems named below: EKVX; KM12; SK-MEL-2; UACC-257; HCC 2998; SN12C; 786-0; U-251; SF-295; SR; NCI/ADR-RES; RXF 393; SF-539; TK-10; HCT-15; CAKI-1; SK-OV-3; OVCAR-4; OVCAR-5; NCI-H522.
What all share (assay): inhibition of tumour cell growth, NCI panel, 48 h

Regarding `O=C(O)c1c2c(c(O)c3c1CN(C1CCCCC1)CO3)OCN(C1CCCCC1)C2`, the GI50 in the assay with EKVX is 47.1 µM (inactive); in the assay with KM12 it was > 100 µM (inactive); with SK-MEL-2, > 100 µM (inactive); in the assay with UACC-257, > 100 µM (inactive); in the assay on HCC 2998, 21.6 µM (inactive); in the assay on SN12C it was 27.2 µM (inactive). The GI50 with 786-0 was 68.4 µM (inactive); in the assay with U-251, 42.6 µM (inactive); in the assay with SF-295, 92.7 µM (inactive); in the assay on SR, 27.2 µM (inactive); with NCI/ADR-RES it was > 100 µM (inactive); in the assay with RXF 393, 63.4 µM (inactive). The GI50 with SF-539 is 37 µM (inactive); in the assay with TK-10, > 100 µM (inactive); in the assay with HCT-15, > 100 µM; in the assay with CAKI-1, > 100 µM (inactive); with SK-OV-3, > 100 µM (inactive); in the assay on OVCAR-4, > 100 µM (inactive). Also, the GI50 with OVCAR-5 was > 100 µM (inactive); in the assay with NCI-H522 it was 29.1 µM (inactive).
As for `O=C(c1cc(Cl)cc(Cl)c1)N(C(=S)OC12CC3CC(CC(C3)C1)C2)c1ccccc1`, the GI50 in the assay with EKVX is 21.8 µM (inactive); in the assay with KM12, 40.3 µM (inactive); in the assay with SK-MEL-2 it was 19.4 µM (inactive); in the assay on UACC-257, 43.3 µM (inactive); in the assay on HCC 2998, 33.8 µM (inactive); in the assay with SN12C, 36.5 µM (inactive). The GI50 was 32.8 µM (inactive) in the assay on 786-0; 33 µM (inactive) with U-251; 34.5 µM (inactive) in the assay with SF-295; 43.1 µM (inactive) with SR; 37.3 µM (inactive) in the assay on NCI/ADR-RES; 41.2 µM (inactive) in the assay with RXF 393. The GI50 was 40 µM (inactive) in the assay with SF-539; 53.3 µM (inactive) with TK-10; 34.6 µM in the assay on HCT-15; 42.1 µM (inactive) with CAKI-1; 32.5 µM (inactive) with SK-OV-3; 46.8 µM (inactive) in the assay on OVCAR-4. Moreover, the results for the GI50 in the assay with OVCAR-5 and with NCI-H522 were 46.3 µM (inactive) and 16 µM (inactive), respectively.
On to `CCCCCCc1cc2cc(C(=O)Nc3cccc(C(F)(F)F)c3)c(=N)oc2cc1O`, for which the GI50 with EKVX was 2.94 µM (inactive); in the assay on KM12, 2.84 µM (inactive); with SK-MEL-2, 2.17 µM (inactive); in the assay with UACC-257, 2.44 µM (inactive); in the assay on HCC 2998, 2.74 µM (inactive); in the assay with SN12C, 1.33 µM (inactive). For the same molecule, the GI50 is 1.37 µM (inactive) with 786-0; 1.33 µM (inactive) in the assay on U-251; 2.9 µM (inactive) in the assay with SF-295; 0.361 µM (active) with SR; 2.06 µM (inactive) in the assay with NCI/ADR-RES; 0.49 µM (active) in the assay with RXF 393. Moreover, the GI50 with SF-539 was 1.73 µM (inactive); in the assay on TK-10 it was 4.01 µM (inactive); in the assay with HCT-15, 1.43 µM; in the assay on CAKI-1 it was 2.32 µM (inactive); with SK-OV-3, 2.16 µM (inactive); with OVCAR-4, 2.32 µM (inactive). In addition, the GI50 in the assay with OVCAR-5 is 4.27 µM (inactive); in the assay on NCI-H522, 0.351 µM (active).
As for `Cc1ccccc1OC(C)C(=O)NN1C(=O)CC(=O)NC1=S` (stereo not given), the GI50 in the assay with EKVX was > 100 µM (inactive); in the assay on KM12, 92 µM (inactive); in the assay with SK-MEL-2, > 100 µM (inactive); with UACC-257, > 100 µM (inactive); in the assay on HCC 2998 it was > 100 µM (inactive); in the assay with SN12C it was > 100 µM (inactive). Besides, the GI50 in the assay with 786-0 is > 100 µM (inactive); in the assay with U-251, > 100 µM (inactive); in the assay on SF-295, 86.7 µM (inactive); in the assay on SR, 49.1 µM (inactive); in the assay with NCI/ADR-RES it was > 100 µM (inactive); with RXF 393, > 100 µM (inactive). The GI50 with SF-539 was > 100 µM (inactive); in the assay with TK-10 it was > 100 µM (inactive); in the assay on HCT-15 it was > 100 µM; with CAKI-1 it was > 100 µM (inactive); in the assay with SK-OV-3, > 100 µM (inactive); in the assay on OVCAR-4 it was 63.2 µM (inactive). In addition, the GI50 in the assay on OVCAR-5 and with NCI-H522 was > 100 µM (inactive) in each case.
Regarding `Cc1cc2cc3c(cc2c(-c2ccc([N+](=O)[O-])cc2)n1)OCO3`, the GI50 with EKVX is 62.2 µM (inactive); in the assay with KM12, 25.1 µM (inactive); in the assay on SK-MEL-2, 39.1 µM (inactive); in the assay with UACC-257 it was 80.2 µM (inactive); in the assay on HCC 2998 it was 74 µM (inactive); in the assay on SN12C it was 28.7 µM (inactive). Also, the GI50 in the assay on 786-0 is 23.6 µM (inactive); in the assay with U-251, 23.7 µM (inactive); in the assay with SF-295 it was 50 µM (inactive); in the assay with SR, 27.9 µM (inactive); in the assay with NCI/ADR-RES, 44.6 µM (inactive); in the assay with RXF 393 it was 32.7 µM (inactive). The GI50 is 22.6 µM (inactive) with SF-539; 43.9 µM (inactive) with TK-10; 26.5 µM with HCT-15; 38.4 µM (inactive) with CAKI-1; 25.6 µM (inactive) in the assay on SK-OV-3; 17.9 µM (inactive) with OVCAR-4. In addition, the GI50 in the assay with OVCAR-5 is > 100 µM (inactive); with NCI-H522 it was 14.4 µM (inactive).
For the molecule `CC1(C)CC(=O)C2=C(C1)OC1(CC2c2ccc(Cl)cc2)CC(c2ccc(Cl)cc2)C2=C(CC(C)(C)CC2=O)O1` (stereo not given), the GI50 with EKVX was 16.1 µM (inactive); in the assay with KM12, 16.7 µM (inactive); with SK-MEL-2, 18.8 µM (inactive); with UACC-257 it was 17 µM (inactive); in the assay with HCC 2998 it was 16.3 µM (inactive); with SN12C, 36.7 µM (inactive). The GI50 in the assay with 786-0 was 15.7 µM (inactive); with U-251, 22.5 µM (inactive); in the assay with SF-295, 22.2 µM (inactive); in the assay with SR, 4.83 µM (inactive); in the assay on NCI/ADR-RES, > 38.5 µM (inactive); in the assay on RXF 393 it was 26.1 µM (inactive). The GI50 is 20.5 µM (inactive) with SF-539; 32.4 µM (inactive) with TK-10; 9.62 µM in the assay with HCT-15; 26.9 µM (inactive) in the assay with CAKI-1; 12.1 µM (inactive) in the assay with SK-OV-3; 6.78 µM (inactive) with OVCAR-4. Besides, the GI50 with OVCAR-5 was 26.9 µM (inactive); with NCI-H522 it was 11.3 µM (inactive).
For the molecule `C[C@@H](CCO)OC1OC(COC(=O)C(C)(C)C)C(OC(=O)C(C)(C)C)C(OC(=O)C(C)(C)C)C1OC(=O)C(C)(C)C` (stereo not given in full), the GI50 was 48.4 µM (inactive) in the assay on EKVX; > 10 µM (inactive) in the assay with KM12; 43.6 µM (inactive) with SK-MEL-2; 25.5 µM (inactive) with UACC-257; 16.6 µM (inactive) in the assay on HCC 2998; 22.1 µM (inactive) in the assay on SN12C. For the same molecule, the GI50 in the assay on 786-0 was 39.5 µM (inactive); in the assay with U-251, 16.7 µM (inactive); in the assay with SF-295, 4.13 µM (inactive); in the assay on SR it was 84.7 µM (inactive); in the assay with NCI/ADR-RES it was > 100 µM (inactive); in the assay on RXF 393 it was 7.46 µM (inactive). In addition, the GI50 is 33.4 µM (inactive) with SF-539; 50.7 µM (inactive) in the assay on TK-10; 32.4 µM with HCT-15; 5.97 µM (inactive) in the assay on CAKI-1; 58.7 µM (inactive) in the assay with SK-OV-3; 27 µM (inactive) in the assay on OVCAR-4. The figures for the GI50 in the assay on OVCAR-5 and with NCI-H522 were > 100 µM (inactive) and 11.7 µM (inactive), respectively.
